Assay results taken from patent publication US6630169B1, “Particulate delivery systems and methods of use” (priority 2000, dated 2003).
Residues, ends and D or L forms follow the SMILES beside them. *: point of attachment. 5FAM = O=C1OC2(c3ccc(O)cc3Oc3cc(O)ccc32)c2ccc(C(=O)*)cc21

Assay: Bioavailability of fluorescent-labeled HA PulmoSpheres, plasma peptide by fluorometry
Type: in vivo
Details: mice
Experimental: A formulation comprising fluoroscein-HA peptide (20% wt/wt) PulmoSpheres (f-HA-Pul) prepared as in Example IV was suspended in perflubron. Metofane anesthetized mice were inoculated intranasally (i.n.) with a […] volume of f-HA-Pul in perflubron, corresponding to […] of peptide dose. Blood samples were collected by ocular bleeding in heparin-treated tubes, the plasma was separated and the concentration of the peptide was measured by fluorometry. As a control, an intravenous i.v.) inoculation of […] of f-HA peptide in […] of sterile saline (n=4 for all groups) was used.

## CC[C@H](C)[C@H](NC(=O)[C@H](CCC(=O)O)NC(=O)[C@H](Cc1ccccc1)NC(=O)[C@H](CCCNC(=N)N)NC(=O)[C@H](CCC(=O)O)NC(=O)[C@H](Cc1ccccc1)NC(=O)[C@H](CO)NC(=O)c1ccc2c(c1)C(=O)OC21c2ccc(O)cc2Oc2cc(O)ccc21)C(=O)N[C@@H](Cc1ccccc1)C(=O)N1CCC[C@H]1C(=O)N[C@@H](CCCCN)C(=O)N[C@@H](CCC(=O)O)C(=O)O [f-HA peptide] (5FAM-SFERFEIFPKE-OH; N-terminus and C-terminus assumed)
  total clearance (elimination via urine): ≤ 6 h
mouse, in vivo, i.n., f-HA-Pul in perflubron
  Tmax: 20 min
mouse, in vivo, i.n., f-HA-Pul in perflubron, vs i.v. f-HA peptide in saline, read-out: absolute bioavailability
  bioavailability: ~5%
